Results taken from PubChem BioAssay (NCI).
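The compound was tested at five concentrations on cells cultured in 96-well plates, with a 48-hour exposure period. Abbreviation: GI50, concentration required for 50% inhibition of growth. The concentration for full growth arrest is given as TGI.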 *1 amine or outer side, *2 acyl side, *3 side chain or, on linkers, in order; H or OH if unused. Where a SMILES comes first, the peptide text is derived from it. [ ]: non-standard residue; d: D form. The star is where a group is joined. X11 = C/C=C/CC(C)C(O)[C@H](N[*:1])C(=O)[*:2]; Decanoyl = CCCCCCCCCC(=O)*; Leu(ol) = CC(C)C[C@H](N)CO; Iva = CC[C@](C)(N)C(=O)O; Aib = CC(C)(N)C(=O)O

How the values were obtained:
Assay in all cases: inhibition of tumour cell growth, NCI panel, 48 h
RPMI-8226 leukemia = system: RPMI-8226 leukemia
EKVX NSCLC = system: EKVX NSCLC
NCI-H522 lung = system: NCI-H522 lung
KM12 colon = system: KM12 colon
HCT-116 colon = system: HCT-116 colon
BT-549 breast = system: BT-549 breast
SK-MEL-2 melanoma = system: SK-MEL-2 melanoma
SK-MEL-28 melanoma = system: SK-MEL-28 melanoma
OVCAR-8 ovarian = system: OVCAR-8 ovarian
K-562 leukemia = system: K-562 leukemia
HS 578T breast = system: HS 578T breast
OVCAR-3 ovarian = system: OVCAR-3 ovarian
PC-3 prostate = system: PC-3 prostate
SNB-75 CNS = system: SNB-75 CNS
T-47D breast = system: T-47D breast
SR leukemia = system: SR leukemia
SNB-19 CNS = system: SNB-19 CNS
A498 renal = system: A498 renal
NCI-H226 lung = system: NCI-H226 lung
RXF 393 renal = system: RXF 393 renal
SN12C renal = system: SN12C renal
HOP-92 NSCLC = system: HOP-92 NSCLC
SF-539 CNS = system: SF-539 CNS
NCI-H460 lung = system: NCI-H460 lung
SK-OV-3 ovarian = system: SK-OV-3 ovarian
SF-295 CNS = system: SF-295 CNS
UACC-257 melanoma = system: UACC-257 melanoma
DU-145 prostate = system: DU-145 prostate
HOP-62 NSCLC = system: HOP-62 NSCLC
HL-60(TB) leukemia = system: HL-60(TB) leukemia
SK-MEL-5 melanoma = system: SK-MEL-5 melanoma
MOLT-4 leukemia = system: MOLT-4 leukemia
SW-620 colon = system: SW-620 colon
HCC-2998 colon = system: HCC-2998 colon
OVCAR-4 ovarian = system: OVCAR-4 ovarian
CAKI-1 renal = system: CAKI-1 renal
MALME-3M melanoma = system: MALME-3M melanoma
LOX IMVI melanoma = system: LOX IMVI melanoma
UO-31 renal = system: UO-31 renal
NCI/ADR-RES ovarian = system: NCI/ADR-RES ovarian
COLO 205 colon = system: COLO 205 colon
786-0 renal = system: 786-0 renal
HCT-15 colon = system: HCT-15 colon
U251 CNS = system: U251 CNS
MDA-MB-435 = system: MDA-MB-435
HT29 colon = system: HT29 colon
CCRF-CEM leukemia = system: CCRF-CEM leukemia
SF-268 CNS = system: SF-268 CNS
IGROV1 ovarian = system: IGROV1 ovarian
MDA-MB-231 breast = system: MDA-MB-231 breast
TK-10 renal = system: TK-10 renal
UACC-62 melanoma = system: UACC-62 melanoma
MCF7 breast = system: MCF7 breast
ACHN renal = system: ACHN renal
A549 NSCLC = system: A549 NSCLC
NCI-H23 lung = system: NCI-H23 lung
M14 melanoma = system: M14 melanoma
OVCAR-5 ovarian = system: OVCAR-5 ovarian

Compound: C/C=C/CC(C)C(O)[C@H](NC(=O)[C@@H]1CCCN1C(=O)[C@](C)(CC)NC(=O)CCCCCCCCC)C(=O)N[C@@](C)(CC)C(=O)N[C@@H](CCC(N)=O)C(=O)N[C@H](CCC(N)=O)C(=O)NC(C)(C)C(=O)NC(C)(C)C(=O)N[C@@H](CCC(N)=O)C(=O)N[C@H](CC(C)C)C(=O)N[C@H](CO)CC(C)C (stereo partly drawn) (Decanoyl-[Iva]P[X11][Iva]Q[dQ][Aib][Aib]Q[dL][Leu(ol)])
- GI50 (RPMI-8226 leukemia): 2.02 µM
- TGI (RPMI-8226 leukemia): 4.32 µM
- GI50 (EKVX NSCLC): 1.74 µM
- TGI (EKVX NSCLC): 3.29 µM
- GI50 (NCI-H522 lung): 1.77 µM
- TGI (NCI-H522 lung): 3.37 µM
- GI50 (KM12 colon): 1.87 µM
- TGI (KM12 colon): 3.57 µM
- GI50 (HCT-116 colon): 1.89 µM
- TGI (HCT-116 colon): 3.57 µM
- GI50 (BT-549 breast): 1.8 µM
- TGI (BT-549 breast): 3.36 µM
- GI50 (SK-MEL-2 melanoma): 1.77 µM
- TGI (SK-MEL-2 melanoma): 3.35 µM
- GI50 (SK-MEL-28 melanoma): 1.7 µM
- TGI (SK-MEL-28 melanoma): 3.09 µM
- GI50 (OVCAR-8 ovarian): 2.04 µM
- TGI (OVCAR-8 ovarian): 4.24 µM
- GI50 (K-562 leukemia): 1.95 µM
- TGI (K-562 leukemia): 3.97 µM
- GI50 (HS 578T breast): 1.8 µM
- TGI (HS 578T breast): 3.48 µM
- GI50 (OVCAR-3 ovarian): 1.88 µM
- TGI (OVCAR-3 ovarian): 3.44 µM
- GI50 (PC-3 prostate): 1.76 µM
- TGI (PC-3 prostate): 3.26 µM
- GI50 (SNB-75 CNS): 1.4 µM
- TGI (SNB-75 CNS): 2.8 µM
- GI50 (T-47D breast): 1.59 µM
- TGI (T-47D breast): 3.4 µM
- GI50 (SR leukemia): 1.61 µM
- TGI (SR leukemia): 3.43 µM
- GI50 (SNB-19 CNS): 1.74 µM
- TGI (SNB-19 CNS): 3.18 µM
- GI50 (A498 renal): 1.9 µM
- TGI (A498 renal): 3.44 µM
- GI50 (NCI-H226 lung): 1.78 µM
- TGI (NCI-H226 lung): 3.83 µM
- GI50 (RXF 393 renal): 2.02 µM
- TGI (RXF 393 renal): 3.64 µM
- GI50 (SN12C renal): 1.67 µM
- TGI (SN12C renal): 3.22 µM
- GI50 (HOP-92 NSCLC): 1.62 µM
- TGI (HOP-92 NSCLC): 3.25 µM
- GI50 (SF-539 CNS): 1.75 µM
- TGI (SF-539 CNS): 3.15 µM
- GI50 (NCI-H460 lung): 1.84 µM
- TGI (NCI-H460 lung): 3.38 µM
- GI50 (SK-OV-3 ovarian): 1.93 µM
- TGI (SK-OV-3 ovarian): 3.95 µM
- GI50 (SF-295 CNS): 1.74 µM
- TGI (SF-295 CNS): 3.3 µM
- GI50 (UACC-257 melanoma): 1.74 µM
- TGI (UACC-257 melanoma): 3.26 µM
- GI50 (DU-145 prostate): 1.79 µM
- TGI (DU-145 prostate): 3.18 µM
- GI50 (HOP-62 NSCLC): 1.63 µM
- TGI (HOP-62 NSCLC): 3.27 µM
- GI50 (HL-60(TB) leukemia): 1.74 µM
- TGI (HL-60(TB) leukemia): 3.39 µM
- GI50 (SK-MEL-5 melanoma): 1.78 µM
- TGI (SK-MEL-5 melanoma): 3.25 µM
- GI50 (MOLT-4 leukemia): 1.93 µM
- TGI (MOLT-4 leukemia): 3.64 µM
- GI50 (SW-620 colon): 1.9 µM
- TGI (SW-620 colon): 3.59 µM
- GI50 (HCC-2998 colon): 1.78 µM
- TGI (HCC-2998 colon): 3.42 µM
- GI50 (OVCAR-4 ovarian): 2.15 µM
- TGI (OVCAR-4 ovarian): 4.8 µM
- GI50 (CAKI-1 renal): 1.69 µM
- TGI (CAKI-1 renal): 3.11 µM
- GI50 (MALME-3M melanoma): 1.52 µM
- TGI (MALME-3M melanoma): 2.92 µM
- GI50 (LOX IMVI melanoma): 1.74 µM
- TGI (LOX IMVI melanoma): 3.26 µM
- GI50 (UO-31 renal): 1.54 µM
- TGI (UO-31 renal): 2.91 µM
- GI50 (NCI/ADR-RES ovarian): 1.81 µM
- TGI (NCI/ADR-RES ovarian): 3.48 µM
- GI50 (COLO 205 colon): 1.96 µM
- TGI (COLO 205 colon): 3.81 µM
- GI50 (786-0 renal): 1.81 µM
- TGI (786-0 renal): 3.43 µM
- GI50 (HCT-15 colon): 1.86 µM
- TGI (HCT-15 colon): 3.67 µM
- GI50 (U251 CNS): 1.77 µM
- TGI (U251 CNS): 3.35 µM
- GI50 (MDA-MB-435): 1.77 µM
- TGI (MDA-MB-435): 3.17 µM
- GI50 (HT29 colon): 1.88 µM
- TGI (HT29 colon): 3.72 µM
- GI50 (CCRF-CEM leukemia): 1.86 µM
- TGI (CCRF-CEM leukemia): 3.65 µM
- GI50 (SF-268 CNS): 1.83 µM
- TGI (SF-268 CNS): 3.45 µM
- GI50 (IGROV1 ovarian): 1.79 µM
- TGI (IGROV1 ovarian): 3.39 µM
- GI50 (MDA-MB-231 breast): 1.78 µM
- TGI (MDA-MB-231 breast): 3.25 µM
- GI50 (TK-10 renal): 1.75 µM
- TGI (TK-10 renal): 3.27 µM
- GI50 (UACC-62 melanoma): 1.66 µM
- TGI (UACC-62 melanoma): 3.05 µM
- GI50 (MCF7 breast): 1.77 µM
- TGI (MCF7 breast): 3.52 µM
- GI50 (ACHN renal): 1.8 µM
- TGI (ACHN renal): 3.29 µM
- GI50 (A549 NSCLC): 1.91 µM
- TGI (A549 NSCLC): 3.92 µM
- GI50 (NCI-H23 lung): 1.8 µM
- TGI (NCI-H23 lung): 3.42 µM
- GI50 (M14 melanoma): 1.8 µM
- TGI (M14 melanoma): 3.37 µM
- GI50 (OVCAR-5 ovarian): 1.68 µM
- TGI (OVCAR-5 ovarian): 3.07 µM
